Where a SMILES comes first, the peptide text is derived from it. [ ]: non-standard residue; d: D form. The star is where a group is joined. d(aIle) = CC[C@H](C)[C@@H](N)C(=O)O; Leu(ol) = CC(C)C[C@H](N)CO; code Z = not defined here; Cbz = O=C(OCc1ccccc1)*; OBn = c1ccc(CO*)cc1; OtBu = CC(C)(C)O*; tBu = CC(C)(C)*
Assays:
[1] = system: rat; test: Diuretic, natriuretic and kaliuretic action, Experimental Design 2 (anesthetized rats, stepwise halved NaCl infusion, i.v. bolus); type: in vivo; conditions: dose 1 mg/kg rat i.v. bolus, collection period 120 min; for Urine: control 0.520; for K^+: control 25.8; for Na^+: control 31.5
Experimental: B. Diuretic, natruiuretic and kaliuretic action of the peptides according to the invention in Experimental Design 2 (dose: 1 mg/kg rat, colection period: 120 min.)
Experimental Design 2: The rats were anesthetized with 0.1 ml of 10% strength thiobutabarbital sodium/100 g of body weight i.p. They received an NaCl infusion from 60 min before administration of the substance up to administration of the substance (2.5 ml of a 0.85% strength NaCl solution .h^-1.0.1 kg^-1 body weight). After ad
ministration of the substance, the infusion rate was halved for one hour (1.25 ml.h^-1.0.1 kg^-1) Thereafter the infusion rate was again halved up to the end of the experiment (0.625 ml.h^1.0.1 kg^-1). The test substance was administered as i.v. bolus in 0.1 ml of a 0.85% strength NaCl solution/100 g of body weight.

[2] = system: rat; test: Diuretic, natriuretic and kaliuretic action, Experimental Design 1 (anesthetized rats, continuous NaCl infusion, i.v. bolus); type: in vivo; conditions: for Urine / K^+ / Na^+: dose 1 mg/kg rat i.v. bolus, collection period 90 min; for Urine: control 1.267; for K^+: control 29.5; for Na^+: control 65.2
Experimental: A. […]
Experimental Design 1: The rats were anesthetized with 0.1 ml of 10% strength thiobutabarbital sodium/100 g of body weight i.p. They received an NaCl infusion from 60 min before administration of the substance and continuing during the experiment (2.5 ml of a 0.9% strength NaCl solution .h^-1.0.1 kg^-1 body weight). The test substance was administered as an i.v. bolus in 0.5 ml of a 0.9% strength solution/100 g of body weight.

Row | Compound | Urine [1] | K^+ [1] | Na^+ [1] | Urine [2] | K^+ [2] | Na^+ [2] | Type of action on diuresis, natriuresis and kaliuresis (in words) ([2]; judged from the data against control)
1 | CC[C@H](C)[C@H](NC(=O)[C@@H](N)CCCNC(=N)N)C(=O)N[C@H](CC(C)C)C(=O)N[C@@H](CCCNC(=N)N)C(=O)N[C@@H](C(=O)O)C(C)C [H-Arg-Ile-D-Leu-Arg-D-Val-OH] (H-RI[dL]R[dV]-OH) | 0.31 mL/kg | 32.8 µmol/kg | 68.4 µmol/kg |  |  |  | 
2 | CC[C@H](C)[C@H](NC(=O)[C@H](CCCNC(=N)N)NC(=O)[C@@H](CC(C)C)NC(=O)[C@H](NC(=O)[C@H](N)CCCNC(=N)N)[C@@H](C)CC)C(=O)O [H-D-Arg-D-allo-Ile-D-Leu-Arg-Ile-OH] (H-[dR][d(aIle)][dL]RI-OH) | 0.87 mL/kg | 35.5 µmol/kg | 95.1 µmol/kg |  |  |  | 
3 | CC[C@H](C)[C@H](NC(=O)[C@H](CCCNC(=N)N)NC(=O)[C@@H](CC(C)C)NC(=O)[C@@H](NC(=O)[C@H](N)CCCNC(=N)N)[C@@H](C)CC)C(=O)O [H-D-Arg-Ile-D-Leu-Arg-Ile-OH] (H-[dR]I[dL]RI-OH) | 1.13 mL/kg | 49.7 µmol/kg | 115.9 µmol/kg |  |  |  | 
4 | CC[C@H](C)[C@H](NC(=O)[C@H](CCCNC(=N)N)NC(=O)[C@H](CC(C)C)NC(=O)[C@H](NC(=O)[C@@H](N)CCCNC(=N)N)C(C)C)C(=O)O [H-Arg-D-Val-Leu-Arg-Ile-OH] (H-R[dV]LRI-OH) | 0.57 mL/kg | 34.9 µmol/kg | 83.77 µmol/kg |  |  |  | 
5 | Z-Arg-I-le-Glu(OtBu)-Arg-Ile-NH2 [Z-Arg-Ile-Glu(OtBu)-Arg-Ile-NH2] | 0.47 mL/kg | 36.1 µmol/kg | 91.5 µmol/kg |  |  |  | 
6 | CC[C@H](C)[C@H](NC(=O)[C@@H](CCCNC(=N)N)NC(=O)[C@H](CC(C)C)NC(=O)[C@@H](NC(=O)[C@@H](N)CCCNC(=N)N)[C@@H](C)CC)C(=O)O [H-Arg-Ile-Leu-D-Arg-Ile-OH] (H-RIL[dR]I-OH) | 0.78 mL/kg | 40.8 µmol/kg | 93.7 µmol/kg |  |  |  | 
7 | H-RID(OtBu)R[Leu(ol)] |  |  |  | 1.55 mL/kg | 64.2 µmol/kg | 180.8 µmol/kg | 
8 | CC[C@H](C)[C@H](NC(=O)[C@H](CCCNC(=N)N)NC(=O)[C@@H](COC(C)(C)C)NC(=O)[C@@H](NC(=O)[C@@H](N)CCCNC(=N)N)[C@@H](C)CC)C(=O)O [H-Arg-Ile-D-Ser(tBu)-Arg-Ile-OH] (H-RI[dS](tBu)RI-OH) |  |  |  | 0.95 mL/kg | 44.3 µmol/kg | 87.0 µmol/kg | 
9 | CC[C@H](C)[C@H](NC(=O)[C@H](CCCNC(=N)N)NC(=O)OCc1ccccc1)C(=O)N[C@@H](COC(C)(C)C)C(=O)N[C@@H](CCCNC(=N)N)C(=O)N1CCC[C@H]1C(=O)OC(C)(C)C [Z-Arg-Ile-Ser(tBu)-Arg-Pro-OtBu] (Cbz-RIS(tBu)RP-OtBu) | 0.44 mL/kg | 37.8 µmol/kg | 88.9 µmol/kg |  |  |  | 
10 | Cbz-[dR]IL[dR]I-OBn | 0.29 mL/kg | 30.1 µmol/kg | 48.4 µmol/kg |  |  |  | 
11 | H-RLQRL-OH [H-Arg-Leu-Gln-Arg-Leu-OH, H-Arg-Leu-Gln-Arg-Leu--OH] | 0.25 mL/kg | 23.7 µmol/kg | 30.2 µmol/kg |  |  |  | 
12 | CC[C@H](C)[C@H](NC(=O)[C@H](CCCNC(=N)N)NC(=O)[C@H](Cc1c[nH]c2ccccc12)NC(=O)[C@@H](NC(=O)[C@H](CCCNC(=N)N)NC(=O)OCc1ccccc1)[C@@H](C)CC)C(=O)O [Z-Arg-Ile-Trp-Arg-Ile-OH] (Cbz-RIWRI-OH) |  |  |  | 1.64 mL/kg | 37.1 µmol/kg | 208.6 µmol/kg | 
13 | H-RILRI-OH [H-Arg-Ile-Leu-Arg-Ile-OH] |  |  |  | 2.03 mL/kg | 50.1 µmol/kg | 149.8 µmol/kg | 
14 | CC[C@H](C)[C@H](NC(=O)[C@@H](N)CCCNC(=N)N)C(=O)N[C@@H](CC(C)C)C(=O)N[C@@H](CCCNC(=N)N)C(=O)N[C@@H](C(=O)O)C(C)C [H-Arg-Ile-Leu-Arg-D-Val-OH] (H-RILR[dV]-OH) | 0.56 mL/kg | 38.9 µmol/kg | 68.8 µmol/kg |  |  |  | 
15 | CC[C@H](C)[C@H](NC(=O)[C@H](CCCNC(=N)N)NC(=O)OCc1ccccc1)C(=O)N[C@H](CC(C)C)C(=O)N[C@@H](CCCNC(=N)N)C(=O)N[C@@H](C(=O)OCc1ccccc1)C(C)C [Z-Arg-Ile-D-Leu-Arg-D-Val-OBzl] (Cbz-RI[dL]R[dV]-OBn) | 0.48 mL/kg | 43.8 µmol/kg | 79.0 µmol/kg |  |  |  | 
16 | CC[C@H](C)[C@H](NC(=O)[C@H](CCCNC(=N)N)NC(=O)[C@H](COC(C)(C)C)NC(=O)[C@@H](NC(=O)[C@@H](N)CCCNC(=N)N)[C@@H](C)CC)C(=O)O [H-Arg-Ile-Ser(tBu)-Arg-Ile-OH] (H-RIS(tBu)RI-OH) |  |  |  | 1.19 mL/kg | 28.4 µmol/kg | 74.5 µmol/kg | 
17 | CC(C)C[C@H](NC(=O)[C@H](NC(=O)[C@H](CCCNC(=N)N)NC(=O)OCc1ccccc1)C(C)C)C(=O)N[C@@H](CCCNC(=N)N)C(=O)N[C@@H](C(=O)OCc1ccccc1)C(C)C [Z-Arg-D-Val-Leu-Arg-D-Val-OBzl] (Cbz-R[dV]LR[dV]-OBn) | 0.27 mL/kg | 38.3 µmol/kg | 55.1 µmol/kg |  |  |  | 
18 | CC[C@H](C)[C@H](NC(=O)[C@H](CCCNC(=N)N)NC(=O)OCc1ccccc1)C(=O)N[C@@H](CC(C)C)C(=O)N[C@H](CCCNC(=N)N)C(=O)N[C@H](C(=O)OCc1ccccc1)[C@@H](C)CC [Z-Arg-Ile-Leu-D-Arg-Ile-OBzl] (Cbz-RIL[dR]I-OBn) | 0.52 mL/kg | 36.2 µmol/kg | 66.9 µmol/kg |  |  |  | 
19 | H-KFLKF-NH2 [H-Lys-Phe-Leu-Lys-Phe-NH2] | 0.25 mL/kg | 16.7 µmol/kg | 36.8 µmol/kg |  |  |  | 
20 | CC[C@H](C)[C@H](NC(=O)[C@H](CCCNC(=N)N)NC(=O)[C@H](CC(C)C)NC(=O)[C@@H](NC(=O)[C@H](N)CCCNC(=N)N)[C@@H](C)CC)C(=O)O [H-D-Arg-Ile-Leu-Arg-Ile-OH] (H-[dR]ILRI-OH) | 0.22 mL/kg | 33.6 µmol/kg | 55.3 µmol/kg |  |  |  | 
21 | H-KFLKF-OH [H-Lys-Phe-Leu-Lys-Phe-OH] | 0.52 mL/kg | 31.0 µmol/kg | 80.2 µmol/kg |  |  |  | 
22 | CC[C@H](C)[C@H](NC(=O)[C@@H](CCCNC(=N)N)NC(=O)[C@H](CC(C)C)NC(=O)[C@@H](NC(=O)[C@H](N)CCCNC(=N)N)[C@@H](C)CC)C(=O)O [H-D-Arg-Ile-Leu-D-Arg-Ile-OH] (H-[dR]IL[dR]I-OH) | 0.28 mL/kg | 33.9 µmol/kg | 61.4 µmol/kg |  |  |  | 
23 | H-RPVKV-OH [H-Arg-Pro-Val-Lys-Val-OH] |  |  |  | 0.91 mL/kg | 28.2 µmol/kg | 155.7 µmol/kg | potassium-retaining natriuretics
24 | CC[C@H](C)[C@H](NC(=O)[C@@H](N)CCCNC(=N)N)C(=O)N[C@@H](COC(C)(C)C)C(=O)N[C@@H](CCCNC(=N)N)C(=O)N1CCC[C@H]1C(=O)OC(C)(C)C [H-Arg-Ile-Ser(tBu)-Arg-Pro-OtBu] (H-RIS(tBu)RP-OtBu) | 0.63 mL/kg | 31.5 µmol/kg | 136.8 µmol/kg |  |  |  | 
25 | CC[C@H](C)[C@H](NC(=O)[C@H](CCCNC(=N)N)NC(=O)OCc1ccccc1)C(=O)N[C@@H](CC(C)C)C(=O)N[C@@H](CCCNC(=N)N)C(=O)N[C@@H](C(=O)OCc1ccccc1)C(C)C [Z-Arg-Ile-Leu-Arg-D-Val-OBzl] (Cbz-RILR[dV]-OBn) | 0.43 mL/kg | 36.7 µmol/kg | 88.6 µmol/kg |  |  |  | 
26 | Z-D-Arg-Ile-Leu-Arg-Ile-OBzl ({code Z}-[dR]ILRI-OBn; reading uncertain; also: printed as Z-D-Arg-Ile-Leu-Arg-Ile-OBzl) | 0.59 mL/kg | 38.1 µmol/kg | 86.3 µmol/kg |  |  |  | 
27 | Z-Arg-Ile-Trp-Arg-Ile-OMe ({code Z}-RIWRI-OMe; reading uncertain; also: printed as Z-Arg-Ile-Trp-Arg-Ile-OMe) |  |  |  | 1.16 mL/kg | 46.2 µmol/kg | 152.5 µmol/kg | 
28 | H-RIWRI-OH [H-Arg-Ile-Trp-Arg-Ile-OH] |  |  |  | 0.67 mL/kg | 57.5 µmol/kg | 112.8 µmol/kg | 
29 | Cbz-[dR]I[dL]RI-OBn | 0.19 mL/kg | 20.4 µmol/kg | 37.3 µmol/kg |  |  |  | 
30 | Cbz-RID(OtBu)RI-NH2 |  |  |  | 1.51 mL/kg | 63.3 µmol/kg | 263.2 µmol/kg | 
